# In PubChem BioAssay (NCI):
#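 The compound was tested at five concentrations on cells cultured in 96-well plates, with a 48-hour exposure period. Definition used: TGI = concentration required for complete inhibition of growth.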
# Tested on: HCT-15 colon
# Assay: DTP human tumour cell line panel, 48 h
row,SMILES,TGI [µM]
1,CCC(C)(O)c1cn(-c2cccc(S(=O)(=O)O)c2)nn1 (stereo not given),> 100
2,COc1ccc(OC)c(/C=C/NC=O)c1,> 100
3,CC(=O)c1cccc2c1CC1(C2)Cc2ccc3c(c2C1=O)CCC3 (stereo not given),> 100
4,COc1cc(Cc2cc(OC)c(OC)c(OC)c2)ccc1O,> 100
5,Nc1nc(Cl)cc(NCC2(CO)CC(OCc3ccccc3)C2)n1 (stereo not given),> 100
6,CC1=CC(=O)NCCN1C,> 100

# Tested on: SK-MEL-28 melanoma
# Assay: DTP human tumour cell line panel, 48 h
row,SMILES,TGI [µM]
1,Cc1cccc(N2C(=O)C(Cl)=C(Cl)C2=O)c1,> 100
2,CCC(C)(O)c1cn(-c2cccc(S(=O)(=O)O)c2)nn1 (stereo not given),> 100
3,COc1ccc(OC)c(/C=C/NC=O)c1,> 100
4,CC(=O)c1cccc2c1CC1(C2)Cc2ccc3c(c2C1=O)CCC3 (stereo not given),> 100
5,COc1cc(Cc2cc(OC)c(OC)c(OC)c2)ccc1O,> 100
6,Nc1nc(Cl)cc(NCC2(CO)CC(OCc3ccccc3)C2)n1 (stereo not given),> 100
7,CC1=CC(=O)NCCN1C,> 100

# Tested on: OVCAR-4 ovarian
# Assay: DTP human tumour cell line panel, 48 h
row,SMILES,TGI [µM]
1,Cc1cccc(N2C(=O)C(Cl)=C(Cl)C2=O)c1,> 71.7
2,CCC(C)(O)c1cn(-c2cccc(S(=O)(=O)O)c2)nn1 (stereo not given),> 100
3,COc1ccc(OC)c(/C=C/NC=O)c1,> 100
4,CC(=O)c1cccc2c1CC1(C2)Cc2ccc3c(c2C1=O)CCC3 (stereo not given),> 100
5,COc1cc(Cc2cc(OC)c(OC)c(OC)c2)ccc1O,> 100
6,Nc1nc(Cl)cc(NCC2(CO)CC(OCc3ccccc3)C2)n1 (stereo not given),> 100
7,CC1=CC(=O)NCCN1C,> 100

# Tested on: SF-295 CNS
# Assay: DTP human tumour cell line panel, 48 h
row,SMILES,TGI [µM]
1,Cc1cccc(N2C(=O)C(Cl)=C(Cl)C2=O)c1,> 100
2,CCC(C)(O)c1cn(-c2cccc(S(=O)(=O)O)c2)nn1 (stereo not given),> 100
3,COc1ccc(OC)c(/C=C/NC=O)c1,> 100
4,CC(=O)c1cccc2c1CC1(C2)Cc2ccc3c(c2C1=O)CCC3 (stereo not given),> 100
5,COc1cc(Cc2cc(OC)c(OC)c(OC)c2)ccc1O,28.6
6,Nc1nc(Cl)cc(NCC2(CO)CC(OCc3ccccc3)C2)n1 (stereo not given),> 100
7,CC1=CC(=O)NCCN1C,> 100

# Tested on: OVCAR-8 ovarian
# Assay: DTP human tumour cell line panel, 48 h
row,SMILES,TGI [µM]
1,Cc1cccc(N2C(=O)C(Cl)=C(Cl)C2=O)c1,> 100
2,CCC(C)(O)c1cn(-c2cccc(S(=O)(=O)O)c2)nn1 (stereo not given),> 100
3,COc1ccc(OC)c(/C=C/NC=O)c1,> 100
4,CC(=O)c1cccc2c1CC1(C2)Cc2ccc3c(c2C1=O)CCC3 (stereo not given),> 100
5,COc1cc(Cc2cc(OC)c(OC)c(OC)c2)ccc1O,> 100
6,Nc1nc(Cl)cc(NCC2(CO)CC(OCc3ccccc3)C2)n1 (stereo not given),> 100
7,CC1=CC(=O)NCCN1C,> 100

# Tested on: SW-620 colon
# Assay: DTP human tumour cell line panel, 48 h
row,SMILES,TGI [µM]
1,Cc1cccc(N2C(=O)C(Cl)=C(Cl)C2=O)c1,> 60.7
2,CCC(C)(O)c1cn(-c2cccc(S(=O)(=O)O)c2)nn1 (stereo not given),> 100
3,COc1ccc(OC)c(/C=C/NC=O)c1,> 100
4,CC(=O)c1cccc2c1CC1(C2)Cc2ccc3c(c2C1=O)CCC3 (stereo not given),> 100
5,COc1cc(Cc2cc(OC)c(OC)c(OC)c2)ccc1O,> 100
6,Nc1nc(Cl)cc(NCC2(CO)CC(OCc3ccccc3)C2)n1 (stereo not given),> 100
7,CC1=CC(=O)NCCN1C,> 100

# Tested on: OVCAR-3 ovarian
# Assay: DTP human tumour cell line panel, 48 h
row,SMILES,TGI [µM]
1,Cc1cccc(N2C(=O)C(Cl)=C(Cl)C2=O)c1,> 80.5
2,CCC(C)(O)c1cn(-c2cccc(S(=O)(=O)O)c2)nn1 (stereo not given),> 100
3,COc1ccc(OC)c(/C=C/NC=O)c1,> 100
4,CC(=O)c1cccc2c1CC1(C2)Cc2ccc3c(c2C1=O)CCC3 (stereo not given),> 100
5,COc1cc(Cc2cc(OC)c(OC)c(OC)c2)ccc1O,52.4
6,Nc1nc(Cl)cc(NCC2(CO)CC(OCc3ccccc3)C2)n1 (stereo not given),> 100
7,CC1=CC(=O)NCCN1C,> 100

# Tested on: 786-0 renal
# Assay: DTP human tumour cell line panel, 48 h
row,SMILES,TGI [µM]
1,Cc1cccc(N2C(=O)C(Cl)=C(Cl)C2=O)c1,> 87.5
2,CCC(C)(O)c1cn(-c2cccc(S(=O)(=O)O)c2)nn1 (stereo not given),> 100
3,COc1ccc(OC)c(/C=C/NC=O)c1,> 100
4,CC(=O)c1cccc2c1CC1(C2)Cc2ccc3c(c2C1=O)CCC3 (stereo not given),> 100
5,COc1cc(Cc2cc(OC)c(OC)c(OC)c2)ccc1O,> 100
6,Nc1nc(Cl)cc(NCC2(CO)CC(OCc3ccccc3)C2)n1 (stereo not given),> 100
7,CC1=CC(=O)NCCN1C,> 100

# Tested on: A498 renal
# Assay: DTP human tumour cell line panel, 48 h
row,SMILES,TGI [µM]
1,Cc1cccc(N2C(=O)C(Cl)=C(Cl)C2=O)c1,> 100
2,CCC(C)(O)c1cn(-c2cccc(S(=O)(=O)O)c2)nn1 (stereo not given),> 100
3,COc1ccc(OC)c(/C=C/NC=O)c1,> 100
4,CC(=O)c1cccc2c1CC1(C2)Cc2ccc3c(c2C1=O)CCC3 (stereo not given),> 100
5,Nc1nc(Cl)cc(NCC2(CO)CC(OCc3ccccc3)C2)n1 (stereo not given),86.5
6,CC1=CC(=O)NCCN1C,> 100

# Tested on: M14 melanoma
# Assay: DTP human tumour cell line panel, 48 h
row,SMILES,TGI [µM]
1,Cc1cccc(N2C(=O)C(Cl)=C(Cl)C2=O)c1,> 100
2,CCC(C)(O)c1cn(-c2cccc(S(=O)(=O)O)c2)nn1 (stereo not given),> 100
3,COc1ccc(OC)c(/C=C/NC=O)c1,> 100
4,CC(=O)c1cccc2c1CC1(C2)Cc2ccc3c(c2C1=O)CCC3 (stereo not given),> 100
5,COc1cc(Cc2cc(OC)c(OC)c(OC)c2)ccc1O,> 100
6,CC1=CC(=O)NCCN1C,> 100

# Tested on: RPMI-8226 leukemia
# Assay: DTP human tumour cell line panel, 48 h
row,SMILES,TGI [µM]
1,Cc1cccc(N2C(=O)C(Cl)=C(Cl)C2=O)c1,> 78.9
2,CCC(C)(O)c1cn(-c2cccc(S(=O)(=O)O)c2)nn1 (stereo not given),> 100
3,COc1ccc(OC)c(/C=C/NC=O)c1,> 100
4,CC(=O)c1cccc2c1CC1(C2)Cc2ccc3c(c2C1=O)CCC3 (stereo not given),> 100
5,COc1cc(Cc2cc(OC)c(OC)c(OC)c2)ccc1O,> 100
6,Nc1nc(Cl)cc(NCC2(CO)CC(OCc3ccccc3)C2)n1 (stereo not given),> 100

# Tested on: SF-539 CNS
# Assay: DTP human tumour cell line panel, 48 h
row,SMILES,TGI [µM]
1,Cc1cccc(N2C(=O)C(Cl)=C(Cl)C2=O)c1,> 100
2,CCC(C)(O)c1cn(-c2cccc(S(=O)(=O)O)c2)nn1 (stereo not given),> 100
3,COc1ccc(OC)c(/C=C/NC=O)c1,> 100
4,CC(=O)c1cccc2c1CC1(C2)Cc2ccc3c(c2C1=O)CCC3 (stereo not given),> 100
5,COc1cc(Cc2cc(OC)c(OC)c(OC)c2)ccc1O,56.2
6,Nc1nc(Cl)cc(NCC2(CO)CC(OCc3ccccc3)C2)n1 (stereo not given),> 100
7,CC1=CC(=O)NCCN1C,> 100

# Tested on: HOP-92 NSCLC
# Assay: DTP human tumour cell line panel, 48 h
row,SMILES,TGI [µM]
1,Cc1cccc(N2C(=O)C(Cl)=C(Cl)C2=O)c1,> 78.6
2,CCC(C)(O)c1cn(-c2cccc(S(=O)(=O)O)c2)nn1 (stereo not given),> 100
3,COc1ccc(OC)c(/C=C/NC=O)c1,> 100
4,CC(=O)c1cccc2c1CC1(C2)Cc2ccc3c(c2C1=O)CCC3 (stereo not given),64.2
5,COc1cc(Cc2cc(OC)c(OC)c(OC)c2)ccc1O,> 100
6,Nc1nc(Cl)cc(NCC2(CO)CC(OCc3ccccc3)C2)n1 (stereo not given),> 100
7,CC1=CC(=O)NCCN1C,> 100

# Tested on: EKVX NSCLC
# Assay: DTP human tumour cell line panel, 48 h
row,SMILES,TGI [µM]
1,Cc1cccc(N2C(=O)C(Cl)=C(Cl)C2=O)c1,> 100
2,CCC(C)(O)c1cn(-c2cccc(S(=O)(=O)O)c2)nn1 (stereo not given),> 100
3,COc1ccc(OC)c(/C=C/NC=O)c1,> 100
4,CC(=O)c1cccc2c1CC1(C2)Cc2ccc3c(c2C1=O)CCC3 (stereo not given),83.3
5,COc1cc(Cc2cc(OC)c(OC)c(OC)c2)ccc1O,> 100
6,Nc1nc(Cl)cc(NCC2(CO)CC(OCc3ccccc3)C2)n1 (stereo not given),> 100
7,CC1=CC(=O)NCCN1C,> 100

# Tested on: SF-268 CNS
# Assay: DTP human tumour cell line panel, 48 h
row,SMILES,TGI [µM]
1,Cc1cccc(N2C(=O)C(Cl)=C(Cl)C2=O)c1,> 100
2,CCC(C)(O)c1cn(-c2cccc(S(=O)(=O)O)c2)nn1 (stereo not given),> 100
3,COc1ccc(OC)c(/C=C/NC=O)c1,> 100
4,CC(=O)c1cccc2c1CC1(C2)Cc2ccc3c(c2C1=O)CCC3 (stereo not given),> 100
5,COc1cc(Cc2cc(OC)c(OC)c(OC)c2)ccc1O,> 100
6,Nc1nc(Cl)cc(NCC2(CO)CC(OCc3ccccc3)C2)n1 (stereo not given),74.8
